Measured values reported in PubChem BioAssay (NCI).
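How tested: cells in 96-well plates exposed to compound for 48 hours at five concentrations. GI50 marks 50% less growth. The concentration for full growth arrest is given as TGI.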

Assays:
Assay in all cases: NCI anticancer screen, dose series, 48 h
[1] = system: KM12 colon
[2] = system: TK-10 renal
[3] = system: RXF 393 renal
[4] = system: BT-549 breast
[5] = system: OVCAR-3 ovarian
[6] = system: MDA-MB-231 breast
[7] = system: A498 renal
[8] = system: CCRF-CEM leukemia
[9] = system: HL-60(TB) leukemia
[10] = system: SF-295 CNS
[11] = system: SK-MEL-5 melanoma
[12] = system: K-562 leukemia
[13] = system: SNB-75 CNS
[14] = system: UACC-62 melanoma
[15] = system: NCI-H460 lung
[16] = system: MOLT-4 leukemia
[17] = system: ACHN renal
[18] = system: SW-620 colon
[19] = system: SF-539 CNS
[20] = system: SR leukemia
[21] = system: HOP-92 NSCLC
[22] = system: CAKI-1 renal
[23] = system: DU-145 prostate
[24] = system: OVCAR-8 ovarian
[25] = system: SK-OV-3 ovarian
[26] = system: UO-31 renal
[27] = system: OVCAR-5 ovarian
[28] = system: PC-3 prostate
[29] = system: SN12C renal

Compound: Cc1[nH]c(C(=O)Nc2ccccc2OCc2cccc(C(=O)N3CCC[C@@H](N)C3)c2)c(Cl)c1Cl
- GI50 [1]: 1820 nM
- TGI [1]: 3400 nM
- GI50 [2]: 2040 nM
- TGI [2]: 3700 nM
- GI50 [3]: 1640 nM
- TGI [3]: 3300 nM
- GI50 [4]: 1780 nM
- TGI [4]: 3430 nM
- GI50 [5]: 1710 nM
- TGI [5]: 3150 nM
- GI50 [6]: 1770 nM
- TGI [6]: 3500 nM
- GI50 [7]: 1560 nM
- TGI [7]: 3010 nM
- GI50 [8]: 1240 nM
- TGI [8]: 2990 nM
- GI50 [9]: 1120 nM
- TGI [9]: 2670 nM
- GI50 [10]: 1790 nM
- TGI [10]: 3360 nM
- GI50 [11]: 1720 nM
- TGI [11]: 3110 nM
- GI50 [12]: 1130 nM
- TGI [12]: 2500 nM
- GI50 [13]: 1330 nM
- TGI [13]: 2710 nM
- GI50 [14]: 1600 nM
- TGI [14]: 3090 nM
- GI50 [15]: 1930 nM
- TGI [15]: 3760 nM
- GI50 [16]: 1690 nM
- TGI [16]: 3430 nM
- GI50 [17]: 1610 nM
- TGI [17]: 3020 nM
- GI50 [18]: 1630 nM
- TGI [18]: 3120 nM
- GI50 [19]: 1570 nM
- TGI [19]: 2960 nM
- GI50 [20]: 254 nM
- TGI [20]: 771 nM
- GI50 [21]: 1060 nM
- TGI [21]: 2620 nM
- GI50 [22]: 1630 nM
- TGI [22]: 3170 nM
- GI50 [23]: 1790 nM
- TGI [23]: 3260 nM
- GI50 [24]: 2060 nM
- TGI [24]: 4570 nM
- GI50 [25]: 1800 nM
- TGI [25]: 3390 nM
- GI50 [26]: 1330 nM
- TGI [26]: 2800 nM
- GI50 [27]: 1570 nM
- TGI [27]: 2980 nM
- GI50 [28]: 1530 nM
- TGI [28]: 3060 nM
- GI50 [29]: 1770 nM
- TGI [29]: 3410 nM
